Key:
[1] = target: Casein kinase I isoform alpha (Homo sapiens) (UniProt P48729); assay: Inhibition of CK1alpha1 (unknown origin) at 10 uM after 120 mins P33 radiolabeled kinase activity assay
[2] = target: Homeodomain-interacting protein kinase 3 (Homo sapiens) (UniProt Q9H422); assay: Inhibition of HIPK3 (unknown origin) at 10 uM after 120 mins P33 radiolabeled kinase activity assay
[3] = target: Insulin-like growth factor 1 receptor (Homo sapiens) (UniProt P08069); assay: Inhibition of IGF1R (unknown origin) at 10 uM after 120 mins P33 radiolabeled kinase activity assay
[4] = target: Ribosomal protein S6 kinase alpha-2 (Homo sapiens) (UniProt Q15349); assay: Inhibition of RSK3 (unknown origin) at 10 uM after 120 mins P33 radiolabeled kinase activity assay
Sequence of Ribosomal protein S6 kinase alpha-2 (Homo sapiens) (Q15349 whole entry): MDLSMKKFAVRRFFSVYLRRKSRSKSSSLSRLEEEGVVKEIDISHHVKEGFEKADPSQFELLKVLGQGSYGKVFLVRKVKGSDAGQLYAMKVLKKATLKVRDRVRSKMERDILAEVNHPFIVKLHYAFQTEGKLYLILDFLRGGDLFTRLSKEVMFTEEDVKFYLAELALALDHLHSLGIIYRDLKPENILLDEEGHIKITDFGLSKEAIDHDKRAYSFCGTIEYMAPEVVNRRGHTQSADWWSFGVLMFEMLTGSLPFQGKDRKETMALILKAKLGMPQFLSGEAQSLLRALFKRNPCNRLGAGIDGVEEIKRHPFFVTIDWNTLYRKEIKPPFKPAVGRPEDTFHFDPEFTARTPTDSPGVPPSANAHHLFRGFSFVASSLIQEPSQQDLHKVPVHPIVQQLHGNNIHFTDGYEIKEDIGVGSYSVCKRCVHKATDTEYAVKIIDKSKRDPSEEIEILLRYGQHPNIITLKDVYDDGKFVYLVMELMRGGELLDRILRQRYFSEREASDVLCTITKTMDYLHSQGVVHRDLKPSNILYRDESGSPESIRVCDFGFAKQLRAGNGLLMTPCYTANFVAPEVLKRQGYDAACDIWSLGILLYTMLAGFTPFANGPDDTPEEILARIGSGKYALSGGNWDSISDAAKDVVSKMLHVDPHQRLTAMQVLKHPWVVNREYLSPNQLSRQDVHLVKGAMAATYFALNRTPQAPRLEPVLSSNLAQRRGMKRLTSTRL

[5] = target: Mitogen-activated protein kinase kinase kinase kinase 4 (Homo sapiens) (UniProt O95819); assay: Inhibition of HGK (unknown origin) at 10 uM after 120 mins P33 radiolabeled kinase activity assay
Sequence of Mitogen-activated protein kinase kinase kinase kinase 4 (Homo sapiens) (O95819 2-1239 limits assumed): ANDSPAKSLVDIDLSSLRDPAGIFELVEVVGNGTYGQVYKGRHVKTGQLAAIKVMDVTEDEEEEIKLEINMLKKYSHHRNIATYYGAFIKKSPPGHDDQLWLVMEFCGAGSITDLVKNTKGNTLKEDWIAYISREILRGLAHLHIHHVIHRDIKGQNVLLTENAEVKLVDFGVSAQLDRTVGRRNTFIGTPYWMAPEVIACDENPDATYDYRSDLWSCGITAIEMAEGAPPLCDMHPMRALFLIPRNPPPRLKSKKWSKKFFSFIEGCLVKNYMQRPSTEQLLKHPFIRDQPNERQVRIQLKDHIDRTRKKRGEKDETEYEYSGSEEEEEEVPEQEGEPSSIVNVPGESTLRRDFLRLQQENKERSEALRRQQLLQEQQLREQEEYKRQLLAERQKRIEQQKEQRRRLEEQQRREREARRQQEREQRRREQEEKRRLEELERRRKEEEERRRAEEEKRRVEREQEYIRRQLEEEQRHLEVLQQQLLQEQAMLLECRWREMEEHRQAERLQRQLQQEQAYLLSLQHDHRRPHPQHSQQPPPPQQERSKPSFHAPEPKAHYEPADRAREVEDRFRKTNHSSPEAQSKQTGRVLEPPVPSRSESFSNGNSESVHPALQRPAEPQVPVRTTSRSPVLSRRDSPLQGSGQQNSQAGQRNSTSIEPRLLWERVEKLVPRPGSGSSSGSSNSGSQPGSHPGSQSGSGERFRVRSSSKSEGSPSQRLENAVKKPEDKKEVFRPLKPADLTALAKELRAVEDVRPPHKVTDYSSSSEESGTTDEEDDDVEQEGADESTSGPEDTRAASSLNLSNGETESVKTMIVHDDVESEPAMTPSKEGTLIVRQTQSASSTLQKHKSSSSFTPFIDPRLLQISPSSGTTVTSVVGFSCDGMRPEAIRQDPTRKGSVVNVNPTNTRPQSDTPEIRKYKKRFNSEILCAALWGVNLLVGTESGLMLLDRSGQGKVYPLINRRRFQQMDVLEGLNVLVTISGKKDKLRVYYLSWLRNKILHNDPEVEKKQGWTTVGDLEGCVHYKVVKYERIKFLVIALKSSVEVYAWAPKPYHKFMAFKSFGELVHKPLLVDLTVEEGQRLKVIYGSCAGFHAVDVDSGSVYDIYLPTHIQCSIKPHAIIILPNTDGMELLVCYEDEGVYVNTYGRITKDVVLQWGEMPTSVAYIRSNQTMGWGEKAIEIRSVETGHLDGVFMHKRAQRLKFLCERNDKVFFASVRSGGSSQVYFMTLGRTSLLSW

[6] = target: T1, Mitogen-activated protein kinase kinase kinase 5 (Homo sapiens) (UniProt Q99683); assay: Inhibition of ASK1 (unknown origin) at 10 uM after 120 mins P33 radiolabeled kinase activity assay
T1 sequence (whole entry): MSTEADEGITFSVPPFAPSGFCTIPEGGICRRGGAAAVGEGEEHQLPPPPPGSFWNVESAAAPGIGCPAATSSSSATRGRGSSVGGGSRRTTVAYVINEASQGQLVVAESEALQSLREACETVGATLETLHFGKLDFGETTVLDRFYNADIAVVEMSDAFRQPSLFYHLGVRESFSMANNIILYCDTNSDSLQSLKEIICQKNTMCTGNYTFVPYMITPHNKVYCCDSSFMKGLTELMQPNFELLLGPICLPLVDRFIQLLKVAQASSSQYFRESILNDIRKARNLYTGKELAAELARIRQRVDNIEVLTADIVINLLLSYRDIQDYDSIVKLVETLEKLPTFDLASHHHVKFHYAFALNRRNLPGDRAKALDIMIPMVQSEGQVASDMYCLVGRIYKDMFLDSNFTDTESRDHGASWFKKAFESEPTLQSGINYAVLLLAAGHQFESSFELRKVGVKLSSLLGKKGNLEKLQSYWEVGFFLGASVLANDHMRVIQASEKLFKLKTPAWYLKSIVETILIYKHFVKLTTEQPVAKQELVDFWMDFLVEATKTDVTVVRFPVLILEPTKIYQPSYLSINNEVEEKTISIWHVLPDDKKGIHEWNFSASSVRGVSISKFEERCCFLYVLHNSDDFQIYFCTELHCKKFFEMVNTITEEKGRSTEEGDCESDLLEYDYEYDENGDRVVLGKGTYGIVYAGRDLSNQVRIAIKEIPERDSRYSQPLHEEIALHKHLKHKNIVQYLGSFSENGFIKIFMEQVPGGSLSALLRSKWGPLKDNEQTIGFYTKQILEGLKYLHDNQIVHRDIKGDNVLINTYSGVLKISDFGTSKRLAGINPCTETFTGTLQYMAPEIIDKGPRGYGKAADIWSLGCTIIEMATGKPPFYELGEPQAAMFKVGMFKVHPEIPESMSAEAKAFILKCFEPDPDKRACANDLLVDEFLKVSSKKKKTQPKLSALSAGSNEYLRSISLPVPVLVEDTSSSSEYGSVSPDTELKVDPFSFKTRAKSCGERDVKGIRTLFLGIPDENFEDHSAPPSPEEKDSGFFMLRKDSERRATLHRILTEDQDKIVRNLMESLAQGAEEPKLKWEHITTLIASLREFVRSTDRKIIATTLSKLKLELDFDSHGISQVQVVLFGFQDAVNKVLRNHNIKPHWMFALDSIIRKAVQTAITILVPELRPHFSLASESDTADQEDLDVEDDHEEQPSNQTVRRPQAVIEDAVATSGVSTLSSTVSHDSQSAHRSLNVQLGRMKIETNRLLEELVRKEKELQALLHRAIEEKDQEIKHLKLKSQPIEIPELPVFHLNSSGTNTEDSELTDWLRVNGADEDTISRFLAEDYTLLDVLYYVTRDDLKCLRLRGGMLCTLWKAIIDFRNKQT

[7] = target: Dual specificity mitogen-activated protein kinase kinase 2 (Homo sapiens) (UniProt P36507); assay: Inhibition of MEK2 (unknown origin) at 10 uM after 120 mins P33 radiolabeled kinase activity assay
[8] = target: Ephrin type-A receptor 5 (Homo sapiens) (UniProt P54756); assay: Inhibition of EPHA5 (unknown origin) at 10 uM after 120 mins P33 radiolabeled kinase activity assay
[9] = target: Macrophage colony-stimulating factor 1 receptor (Homo sapiens) (UniProt P07333); assay: Inhibition of FMS (unknown origin) at 10 uM after 120 mins P33 radiolabeled kinase activity assay
[10] = target: Cyclin-dependent kinase 2 (Homo sapiens) (UniProt P24941); assay: Inhibition of CDK2 (unknown origin) at 10 uM after 120 mins P33 radiolabeled kinase activity assay
[11] = target: SRSF protein kinase 1 (Homo sapiens) (UniProt Q96SB4); assay: Inhibition of SRPK1 (unknown origin) at 10 uM after 120 mins P33 radiolabeled kinase activity assay
[12] = target: Interleukin-1 receptor-associated kinase 1 (Homo sapiens) (UniProt P51617); assay: Inhibition of IRAK1 (unknown origin) at 10 uM after 120 mins P33 radiolabeled kinase activity assay
Sequence of Interleukin-1 receptor-associated kinase 1 (Homo sapiens) (P51617 whole entry, looked up): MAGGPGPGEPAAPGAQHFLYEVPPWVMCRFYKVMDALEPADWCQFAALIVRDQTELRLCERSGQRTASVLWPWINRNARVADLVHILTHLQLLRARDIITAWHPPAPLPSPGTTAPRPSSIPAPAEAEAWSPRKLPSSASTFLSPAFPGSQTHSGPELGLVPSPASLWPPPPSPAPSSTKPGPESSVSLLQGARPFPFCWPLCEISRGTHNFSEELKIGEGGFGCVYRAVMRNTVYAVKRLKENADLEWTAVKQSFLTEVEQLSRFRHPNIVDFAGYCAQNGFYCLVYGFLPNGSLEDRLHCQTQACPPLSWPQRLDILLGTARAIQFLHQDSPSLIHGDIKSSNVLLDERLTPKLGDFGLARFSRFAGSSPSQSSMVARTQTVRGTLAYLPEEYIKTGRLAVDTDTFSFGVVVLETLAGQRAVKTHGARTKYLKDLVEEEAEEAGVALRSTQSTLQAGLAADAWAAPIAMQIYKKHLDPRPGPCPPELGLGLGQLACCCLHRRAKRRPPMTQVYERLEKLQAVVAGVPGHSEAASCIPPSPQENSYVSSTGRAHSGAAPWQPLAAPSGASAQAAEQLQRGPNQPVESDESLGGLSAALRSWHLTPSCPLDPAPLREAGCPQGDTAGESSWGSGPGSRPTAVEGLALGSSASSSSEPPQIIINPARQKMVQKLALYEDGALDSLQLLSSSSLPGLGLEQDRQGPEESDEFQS

[13] = target: T2, Testis-specific serine/threonine-protein kinase 3 (Homo sapiens) (UniProt Q96PN8); assay: Inhibition of TSSK3 (unknown origin) at 10 uM after 120 mins P33 radiolabeled kinase activity assay
T2 sequence (whole entry): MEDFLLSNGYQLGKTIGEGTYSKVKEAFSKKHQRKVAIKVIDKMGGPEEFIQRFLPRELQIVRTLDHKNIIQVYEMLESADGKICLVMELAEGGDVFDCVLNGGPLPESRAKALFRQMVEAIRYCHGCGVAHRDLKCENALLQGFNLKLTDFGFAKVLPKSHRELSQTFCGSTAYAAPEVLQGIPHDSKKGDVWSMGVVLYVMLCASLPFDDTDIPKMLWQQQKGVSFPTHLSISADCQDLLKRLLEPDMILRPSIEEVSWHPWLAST

[14] = target: Tyrosine-protein kinase SYK (Homo sapiens) (UniProt P43405); assay: Inhibition of SYK (unknown origin) at 10 uM after 120 mins P33 radiolabeled kinase activity assay
[15] = target: Misshapen-like kinase 1 (Homo sapiens) (UniProt Q8N4C8); assay: Inhibition of MINK (unknown origin) at 10 uM after 120 mins P33 radiolabeled kinase activity assay
[16] = target: Mitogen-activated protein kinase kinase kinase 1 (Homo sapiens) (UniProt Q13233); assay: Inhibition of MEKK1 (unknown origin) at 10 uM after 120 mins P33 radiolabeled kinase activity assay
[17] = target: Platelet-derived growth factor receptor beta (Homo sapiens) (UniProt P09619); assay: Inhibition of PDGFRbeta (unknown origin) at 10 uM after 120 mins P33 radiolabeled kinase activity assay
[18] = target: Calcium/calmodulin-dependent protein kinase type II subunit beta (Homo sapiens) (UniProt Q13554); assay: Inhibition of CAMK2beta (unknown origin) at 10 uM after 120 mins P33 radiolabeled kinase activity assay
Sequence of Calcium/calmodulin-dependent protein kinase type II subunit beta (Homo sapiens) (Q13554 whole entry): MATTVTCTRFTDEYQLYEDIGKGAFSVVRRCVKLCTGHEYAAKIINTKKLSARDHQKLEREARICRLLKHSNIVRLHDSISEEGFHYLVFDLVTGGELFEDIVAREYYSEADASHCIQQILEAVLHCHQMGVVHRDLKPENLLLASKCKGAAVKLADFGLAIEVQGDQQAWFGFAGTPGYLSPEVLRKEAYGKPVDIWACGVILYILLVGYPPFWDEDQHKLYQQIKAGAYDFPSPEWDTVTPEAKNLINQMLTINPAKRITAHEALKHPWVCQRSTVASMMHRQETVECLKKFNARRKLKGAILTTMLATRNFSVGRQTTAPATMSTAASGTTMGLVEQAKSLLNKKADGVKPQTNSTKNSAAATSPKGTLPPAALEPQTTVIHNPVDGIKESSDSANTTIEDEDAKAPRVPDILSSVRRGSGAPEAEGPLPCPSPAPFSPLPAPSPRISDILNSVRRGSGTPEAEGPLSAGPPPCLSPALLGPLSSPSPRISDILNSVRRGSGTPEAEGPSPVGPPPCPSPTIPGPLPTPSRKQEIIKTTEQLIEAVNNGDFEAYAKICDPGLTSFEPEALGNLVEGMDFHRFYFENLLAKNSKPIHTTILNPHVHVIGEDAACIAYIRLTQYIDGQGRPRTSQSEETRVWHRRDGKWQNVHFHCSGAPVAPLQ

Sequence of Homeodomain-interacting protein kinase 3 (Homo sapiens) (Q9H422 whole entry, looked up): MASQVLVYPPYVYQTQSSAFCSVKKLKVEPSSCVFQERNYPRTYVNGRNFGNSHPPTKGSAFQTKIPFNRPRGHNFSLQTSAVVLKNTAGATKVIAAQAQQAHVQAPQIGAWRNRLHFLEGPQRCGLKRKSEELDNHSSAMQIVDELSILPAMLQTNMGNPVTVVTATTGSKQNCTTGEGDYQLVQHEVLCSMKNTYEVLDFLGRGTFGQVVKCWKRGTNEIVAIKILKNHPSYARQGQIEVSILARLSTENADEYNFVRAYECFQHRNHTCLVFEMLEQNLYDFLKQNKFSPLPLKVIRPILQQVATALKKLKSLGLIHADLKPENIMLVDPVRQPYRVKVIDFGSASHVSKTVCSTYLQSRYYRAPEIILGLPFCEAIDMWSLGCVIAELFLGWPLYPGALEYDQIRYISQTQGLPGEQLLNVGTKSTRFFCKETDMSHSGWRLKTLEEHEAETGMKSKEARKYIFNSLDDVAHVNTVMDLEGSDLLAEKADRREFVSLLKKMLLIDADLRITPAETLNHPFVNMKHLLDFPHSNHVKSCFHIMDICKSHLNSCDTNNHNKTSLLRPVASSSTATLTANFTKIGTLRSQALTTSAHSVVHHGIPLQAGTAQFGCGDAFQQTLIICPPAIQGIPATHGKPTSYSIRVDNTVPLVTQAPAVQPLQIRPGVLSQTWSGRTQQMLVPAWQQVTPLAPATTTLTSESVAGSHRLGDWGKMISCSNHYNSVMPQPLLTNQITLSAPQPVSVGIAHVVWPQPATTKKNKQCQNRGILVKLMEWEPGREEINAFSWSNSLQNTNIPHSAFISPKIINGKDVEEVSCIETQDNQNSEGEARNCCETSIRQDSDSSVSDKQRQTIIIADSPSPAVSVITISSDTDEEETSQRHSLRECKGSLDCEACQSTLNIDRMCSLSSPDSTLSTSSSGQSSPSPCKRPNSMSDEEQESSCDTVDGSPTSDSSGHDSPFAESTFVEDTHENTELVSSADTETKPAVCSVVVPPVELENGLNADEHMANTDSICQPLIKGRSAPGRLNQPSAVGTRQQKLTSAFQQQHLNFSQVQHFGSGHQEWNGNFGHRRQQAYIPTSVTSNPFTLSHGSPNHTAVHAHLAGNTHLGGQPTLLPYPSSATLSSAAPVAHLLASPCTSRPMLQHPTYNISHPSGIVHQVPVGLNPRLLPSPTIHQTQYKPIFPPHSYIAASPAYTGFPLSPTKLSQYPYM
Sequence of Casein kinase I isoform alpha (Homo sapiens) (P48729 2-337 limits assumed): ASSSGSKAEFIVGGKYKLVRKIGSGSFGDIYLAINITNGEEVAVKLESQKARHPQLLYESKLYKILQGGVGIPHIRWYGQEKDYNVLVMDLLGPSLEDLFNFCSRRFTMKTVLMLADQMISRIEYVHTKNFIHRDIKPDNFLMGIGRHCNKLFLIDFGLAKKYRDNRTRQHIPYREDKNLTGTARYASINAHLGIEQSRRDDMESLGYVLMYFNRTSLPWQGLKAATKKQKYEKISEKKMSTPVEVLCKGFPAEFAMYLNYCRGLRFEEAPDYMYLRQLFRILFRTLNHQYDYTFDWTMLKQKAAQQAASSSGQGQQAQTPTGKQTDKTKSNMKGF

Structure (SMILES) | inhibition [1] [%] | inhibition [2] [%] | inhibition [3] [%] | inhibition [4] [%] | inhibition [5] [%] | inhibition [6] [%] | inhibition [7] [%] | inhibition [8] [%] | inhibition [9] [%] | inhibition [10] [%] | inhibition [11] [%] | inhibition [12] [%] | inhibition [13] [%] | inhibition [14] [%] | inhibition [15] [%] | inhibition [16] [%] | inhibition [17] [%] | inhibition [18] [%]
CS(=O)(=O)c1cccc(Nc2nccc(-c3sc(N4CCOCC4)nc3-c3cccc(NS(=O)(=O)c4c(F)cccc4F)c3)n2)c1 | 22.6 | 89.4 | 9.14 | 67.5 | 63.3 | 9.88 | 79 | 58 | 43.9 | 75.7 | 18.5 | 27.6 | 10.5 | 21.4 | 62.5 | -3 | 91 | 8.74
COCCNC(=O)c1ccc2c(c1)nc(-c1cnc(-c3ccc(Cl)cc3)[nH]1)n2CCOC | 46.8 | 3.91 | 2.21 | 11.2 | 57.7 | 19.7 | -5.83 | 20.2 | 5.32 | 7.06 | 5.66 | 5.62 | 15 | 5.53 | 60.7 | -3.24 | 11.1 | 7.54
CC(C)(C)c1cc(NC(=O)Nc2ccc(Oc3ccncc3)cc2)no1 | 19.9 | 45.5 | 2.82 | 53.4 | 99.8 | 19.8 | 52.5 | 95.5 | 98.2 | 67.3 | 59.1 | 99.1 | 11.2 | 6.66 | 100 | 25.2 | 99.5 | 13.5

From ChEMBL document CHEMBL3627608, “Crystal structures of human RIP2 kinase catalytic domain complexed with ATP-competitive inhibitors: Foundations for understanding inhibitor selectivity” (Bioorg Med Chem, 2015)
